# Measured values as given in article PMC9301698 (ACS Omega, 2022).
# Legend:
# [1] = target: butyrylcholinesterase; details: read-out: butyrylcholinesterase inhibitory activity IC50; cited from earlier work
# [2] = tested on: HT-29; details: read-out: cytotoxicity against HT-29 IC50; cited from earlier work
# [3] = tested on: RAW 264.7 cells; experiment: MTT cytotoxicity assay in mammalian cells; format: cell-based; details: Mus musculus, RAW264.7, read-out: IC50 RAW 264.7, MTT
# [4] = tested on: A549 cells; experiment: MTT cytotoxicity assay, lung cancer; format: cell-based, human; details: Homo sapiens, A549, read-out: IC50 A549 (lung cancer)
# [5] = MTT cytotoxicity assay, colorectal cancer; format: cell-based, human; details: human, SW480 cells (colorectal cancer)
# [6] = tested on: SW480 cells; experiment: MTT cytotoxicity assay, colorectal cancer; format: cell-based, human; details: Homo sapiens, SW480, read-out: IC50 SW480 (Colorectal cancer), MTT
# [7] = tested on: K562 cells; experiment: MTT cytotoxicity assay, leukemia; format: cell-based, human; details: Homo sapiens, K562, read-out: IC50 K562 (leukemia), MTT
# [8] = cytotoxicity screening, summary over cell lines; format: cell-based; details: mouse, human
# [9] = MTT cytotoxicity assay in mammalian cells; format: cell-based; details: mouse, RAW 264.7 cells
# [10] = MTT cytotoxicity assay, lung cancer; format: cell-based, human; details: human, A549 cells (lung cancer)
# [11] = MTT cytotoxicity assay, leukemia; format: cell-based, human; details: human, K562 cells (leukemia)
# [12] = target: T1, α-glucosidase (Saccharomyces cerevisiae, UniProt P53341); experiment: colorimetric α-glucosidase inhibitory assay; format: biochemical; details: mean ± SD
# [13] = target: T2, α-amylase (Sus scrofa, UniProt P00690); experiment: α-amylase inhibitory assay; format: biochemical; details: at a concentration of 100 μg/mL; mean ± SD
# T2 sequence (P00690 16-511): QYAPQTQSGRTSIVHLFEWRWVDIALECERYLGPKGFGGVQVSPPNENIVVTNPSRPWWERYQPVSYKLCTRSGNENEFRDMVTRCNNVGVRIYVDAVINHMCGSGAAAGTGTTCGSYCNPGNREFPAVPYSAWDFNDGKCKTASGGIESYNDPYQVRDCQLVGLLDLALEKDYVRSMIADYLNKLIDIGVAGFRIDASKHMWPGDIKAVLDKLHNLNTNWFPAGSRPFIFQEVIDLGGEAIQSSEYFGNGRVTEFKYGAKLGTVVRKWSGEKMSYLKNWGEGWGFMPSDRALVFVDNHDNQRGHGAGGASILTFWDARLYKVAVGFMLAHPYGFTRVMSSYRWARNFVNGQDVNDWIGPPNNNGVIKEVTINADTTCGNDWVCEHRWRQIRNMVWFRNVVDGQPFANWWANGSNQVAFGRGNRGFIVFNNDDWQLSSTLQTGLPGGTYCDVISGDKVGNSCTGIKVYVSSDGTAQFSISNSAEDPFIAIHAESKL
# [14] = tested on: HepG2 cell lines; details: read-out: cytotoxicity against HepG2 cell lines IC50; cited from earlier work
# [15] = cited from earlier work
# [16] = target: T1, α-glucosidase; details: read-out: α-glucosidase inhibitory activity IC50; cited from earlier work
# T1 sequence (P53341 whole entry): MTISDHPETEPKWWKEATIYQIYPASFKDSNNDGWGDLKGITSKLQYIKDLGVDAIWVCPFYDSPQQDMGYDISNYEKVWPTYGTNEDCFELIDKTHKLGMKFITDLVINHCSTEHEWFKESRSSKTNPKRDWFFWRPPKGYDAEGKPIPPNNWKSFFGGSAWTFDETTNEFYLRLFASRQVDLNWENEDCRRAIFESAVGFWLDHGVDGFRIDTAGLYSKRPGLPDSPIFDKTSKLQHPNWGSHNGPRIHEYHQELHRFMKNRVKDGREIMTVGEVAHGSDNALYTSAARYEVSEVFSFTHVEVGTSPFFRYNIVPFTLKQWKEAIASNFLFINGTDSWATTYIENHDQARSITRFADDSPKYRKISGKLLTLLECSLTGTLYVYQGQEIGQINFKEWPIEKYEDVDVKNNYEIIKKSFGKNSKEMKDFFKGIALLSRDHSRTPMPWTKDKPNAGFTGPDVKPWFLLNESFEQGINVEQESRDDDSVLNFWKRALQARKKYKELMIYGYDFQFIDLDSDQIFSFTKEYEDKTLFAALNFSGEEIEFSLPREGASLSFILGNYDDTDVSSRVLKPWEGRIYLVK
compound,measurement,setting,value
"COc1ccc(-c2coc3c4c(ccc3c2=O)OC(C)(C)C=C4)cc1OC [4′,5′-dimethoxy-6,6-dimethylpyranoisoflavone]",IC50,[1],2.34 µM
C=C(C)[C@H]1Cc2c(ccc3c2O[C@@H]2COc4cc(OC)c(OC)cc4[C@]2(O)C3=O)O1 [(−)-Hydroxyrotenone],IC50,[2],0.1 µM
C=C(C)[C@H]1Cc2c(ccc3c2O[C@@H]2COc4cc(OC)c(OC)cc4[C@@H]2C3=O)O1 [(−)-rotenone],IC50,[2],0.3 µM
"CC(C)=CCc1c(O)c(CC=C(C)C)c2occ(-c3ccc(O)cc3)c(=O)c2c1O [Compound 10, 6,8-diprenylgenistein]",IC50,[3],> 100 µM
same,IC50,[4],> 100 µM
same,viability at 6.25 μg/mL,[5],117.5 ± 0.31%
same,viability at 12.5 μg/mL,[5],118.8 ± 0.92%
same,viability at 25 μg/mL,[5],117 ± 3.08%
same,viability at 50 μg/mL,[5],94.7 ± 3.85%
same,viability at 100 μg/mL,[5],77 ± 3.95%
same,IC50,[6],> 100 µM
same,IC50,[7],> 100 µM
same,viability,[8]; RAW 264.7 and SW480 cells,5.66 to 77%
"C=C(C)C(O)Cc1c(O)c(CC=C(C)C)c2occ(-c3ccc(O)cc3)c(=O)c2c1O (centres unmarked) [Compound 13, isoerysenegalensein E]","viability at 24 h, 6.25 μg/mL",[9],103 ± 8.01%
same,"viability at 24 h, 12.5 μg/mL",[9],100 ± 2.13%
same,"viability at 24 h, 25 μg/mL",[9],61.9 ± 3.12%
same,"viability at 24 h, 50 μg/mL",[9],47.3 ± 2.94%
same,"viability at 24 h, 100 μg/mL",[9],29.4 ± 3.72%
same,IC50,[3],56.1 µM
same,IC50,[4],> 100 µM
same,viability at 6.25 μg/mL,[5],94 ± 4.18%
same,viability at 12.5 μg/mL,[5],92.8 ± 1.57%
same,viability at 25 μg/mL,[5],90.4 ± 1.91%
same,viability at 50 μg/mL,[5],89.5 ± 3.29%
same,viability at 100 μg/mL,[5],59.5 ± 1.3%
same,IC50,[6],> 100 µM
same,IC50,[7],> 100 µM
same,viability,[8]; RAW 264.7 and SW480 cells,5.66 to 77%
"CC(C)=CCc1c2c(c3occ(-c4ccc(O)cc4)c(=O)c3c1O)CC(C(C)(C)O)O2 (centres unmarked) [Compound 16, senegalensin]","viability at 24 h, 6.25 μg/mL",[9],154 ± 1.59%
same,"viability at 24 h, 12.5 μg/mL",[9],139 ± 6.94%
same,"viability at 24 h, 25 μg/mL",[9],58.7 ± 2.23%
same,"viability at 24 h, 50 μg/mL",[9],6 ± 0.65%
same,"viability at 24 h, 100 μg/mL",[9],5.3 ± 0.01%
same,IC50,[3],51.5 µM
same,viability at 6.25 μg/mL,[10],126 ± 1.36%
same,viability at 12.5 μg/mL,[10],116 ± 2.68%
same,viability at 25 μg/mL,[10],97 ± 9.76%
same,viability at 50 μg/mL,[10],6.25 ± 0.33%
same,viability at 100 μg/mL,[10],4.53 ± 0.07%
same,IC50,[4],70.9 µM
same,viability at 6.25 μg/mL,[5],166 ± 6.12%
same,viability at 12.5 μg/mL,[5],142 ± 1.71%
same,viability at 25 μg/mL,[5],122 ± 6.64%
same,viability at 50 μg/mL,[5],6.6 ± 0.14%
same,viability at 100 μg/mL,[5],6.09 ± 0.11%
same,IC50,[6],69.8 µM
same,viability at 6.25 μg/mL,[11],76.6 ± 3.38%
same,viability at 12.5 μg/mL,[11],28.8 ± 0.39%
same,viability at 25 μg/mL,[11],11.54 ± 0.06%
same,viability at 50 μg/mL,[11],10.2 ± 0.15%
same,viability at 100 μg/mL,[11],9.7 ± 0.15%
same,IC50,[7],21.5 µM
same,viability,"[8]; A549, SW480, K562 and RAW 264.7 cells",4.53 to 48.2%
C[C@H]1O[C@H](O[C@H]2[C@H](O)[C@@H](O)[C@@H](O[C@H]3[C@H](O)[C@@H](O)C(O)O[C@@H]3CO)O[C@@H]2CO)[C@H](O)[C@@H](O)[C@@H]1N[C@H]1C=C(CO)[C@@H](O)[C@H](O)[C@H]1O (some centres unmarked) [acarbose],"α-glucosidase inhibition, inhibition rate (%)",[12],57.2 ± 0.8%
same,"α-amylase inhibition, inhibition rate (%)",[13],58.5 ± 1.9%
COc1cc(OC)c(-c2coc3c4c(ccc3c2=O)OC(C)(C)C=C4)cc1OC [barbigerone],IC50,[14],0.61 µM
COc1cc2c(cc1OC)[C@@H]1C(=O)c3ccc4c(c3O[C@@H]1CO2)C=CC(C)(C)O4 [deguelin],IC50,[1],14.2 µM
"COc1cccc2c1C(=O)c1c(O)c3c(c(O)c1C2=O)C[C@@](O)(C(=O)CO)C[C@@H]3O[C@H]1C[C@H](N)[C@H](O)[C@H](C)O1 [doxorubicin, reference compound]","viability at 24 h, 6.25 μg/mL",[9],4.62 ± 0.17%
same,"viability at 24 h, 12.5 μg/mL",[9],5.35 ± 0.27%
same,"viability at 24 h, 25 μg/mL",[9],4.59 ± 0.01%
same,"viability at 24 h, 50 μg/mL",[9],4.44 ± 0.08%
same,"viability at 24 h, 100 μg/mL",[9],5.96 ± 0.42%
same,IC50,[3],< 11.5 µM
same,viability at 6.25 μg/mL,[10],79.6 ± 1.89%
same,viability at 12.5 μg/mL,[10],74 ± 0.75%
same,viability at 25 μg/mL,[10],57.7 ± 1.71%
same,viability at 50 μg/mL,[10],52.8 ± 1.51%
same,viability at 100 μg/mL,[10],10.1 ± 3.11%
same,IC50,[4],134 µM
same,viability at 6.25 μg/mL,[5],80 ± 2.48%
same,viability at 12.5 μg/mL,[5],73.9 ± 1.19%
same,viability at 25 μg/mL,[5],60.2 ± 1.51%
same,viability at 50 μg/mL,[5],17.8 ± 1.49%
same,viability at 100 μg/mL,[5],16.8 ± 1.29%
same,IC50,[6],53.4 µM
same,viability at 12.5 μg/mL,[11],70.3 ± 0.89%
same,viability at 25 μg/mL,[11],59.5 ± 1.8%
same,viability at 50 μg/mL,[11],49.6 ± 2.2%
same,viability at 100 μg/mL,[11],32.4 ± 0.89%
same,IC50,[7],86.8 µM
COc1cc2c(cc1OC)[C@]1(O)C(=O)c3ccc4c(c3O[C@@H]1CO2)C=CC(C)(C)O4 [tephrosin],cell toxicity,[15]; at a concentration of 3.125 μM,without cell toxicity
same,IC50,[15]; read-out: anti-inflammatory activity IC50,< 10 µM
berectones A,IC50,[16],144 µM
